This is an account of results in US11845803B2, “Combination therapies for treatment of BCMA-related cancers and autoimmune disorders” (Fred Hutchinson Cancer Center, priority 2017, dated 2023).

Assay [1] has as its system BCMA-specific T-ChARM T cells co-cultured with K562/BCMA+ cells. Kind of assay: Effect of exogenous soluble BCMA / BCMA-Fc on BCMA-specific T-ChARM T cell function. The assay is classed as cell-based, human. As for the experimental part: (H) IFN-γ production by BCMA-specific T-ChARM T cells in the presence of exogenous soluble BCMA. sBCMA was added to co-cultures of T cells expressing a BCMA-specific T-ChARM and K562 cells transduced with a polynucleotide encoding full-length BCMA (K562/BCMA^+).
(I) Data from another dose-titration experiment showing the effect of sBCMA on IFN-γ production by BCMA-specific T-ChARM T cells recognizing K562 BCMA^+ cells, which included adding sBCMA to culture at another, higher concentration (5000 ng/mL).
(N) Flow cytometry data showing IFN-γ production (y-axis) and CD4 expression (x-axis) by T cells expressing either a C113ST-ChARM (“C113ST”) of this disclosure or a control anti-CD19 CAR (“[…]”), in co-culture with target-expressing K562 cells and administered the BCMA-Fc fusion protein (left panels: 0 ng/ml BCMA-Fc; right panels: 1000 ng/ml BCMA-Fc.
(O) Dose titration showing IFN-γ release by CAR T cells in response to target cell lines as indicated in the presence or absence of exogenous recombinant BCMA (BCMA-Fc fusion). FMC63 (anti-CD19) vs. K562 CD19^+ (control; downward-facing triangle); C113ST T-ChARM T cells vs. RPMI 8226 (upward-facing triangle), U266 (square), and K562 BCMA^+ cells (circle). Data is representative of 2 independent experiments. Bars represent mean+SEM. P-value=<0.05, as determined by one-way ANOVA with post-test. MFI=mean fluorescence intensity.
(P) IFN-γ production (normalized Mean Fluorescence Intensity, MFI) by the T cells shown in FIG. 2O in co-culture with indicated antigen-expressing cells and in the presence or absence of BCMA-Fc (x-axis).
(Q) Cytolytic activity of CD8^+ C113ST T-ChARM T cells against K562 BCMA^+ target cells and of FMC63 CAR-T cells against K562 CD19^+ target cells at varying concentrations of recombinant BCMA, analyzed by a 4 h CRA at E:T ratio of 10:1. Data is representative of 2 independent experiments. Bars represent mean+SEM. P-value=<0.05, as determined by one way ANOVA with post-test. MFI=mean fluorescence intensity.
The effect of sBCMA was examined as well by adding sBCMA to co-cultures of T cells expressing a BCMA-specific T-ChARM and K562 cells transduced with a polynucleotide encoding full-length BCMA (K562/BCMA^+).

The next assay relates to C113ST T-ChARM T cells. Kind of assay: sBCMA binding to T-ChARM T cells (BCMA-Fc-APC staining after incubation with recombinant BCMA). Also noted: species or system human. The conditions noted are these: increasing levels of recombinant BCMA. As for the experimental part: (L) sBCMA binding to C113ST-ChARM T cells of this disclosure. T cells were incubated with the indicated levels of recombinant sBCMA (right side of diagram) and then stained with a BCMA-Fc fusion that was conjugated to APC.
To examine whether high levels of sBCMA might inhibit the activity of BCMA-specific T-ChARM T cells, patient bone marrow (BM) sera were examined for sBCMA levels. […] To test whether sBCMA would bind to the T-ChARM T cells, the T cells were incubated with increasing levels of recombinant BCMA and then stained using BCMA-Fc conjugated to APC.

No end group written: not given here.

In the case of “BCMA-Fc: recombinant BCMA-Fc fusion protein (MLQMAGQCSQNEYFDSLLHACIPCQLRCSSNTPPLTCQRYCNASVTNSVKGTNA; not fully specified; cysteine pairing not given here; also: fused to dimerising Fc or GST (not given here))”, the “recognition (IFN-γ production and CD4 expression) by BCMA-targeting T-ChARM T cells” value in assay [1] (BCMA-Fc added to co-cultures) was “much-reduced recognition”. The “recognition by control anti-CD19 CAR T cells” value in assay [1] (BCMA-Fc added, K562 cells expressing CD19) is given as “but not by control anti-CD19 CAR T cells”. For the same substance, the “dose dependence of effect on BCMA T-ChARM T cells” value in assay [1] (BCMA-Fc titration) was “dose-dependent”.

For “sBCMA: exogenous soluble / recombinant BCMA not fused to Fc (MLQMAGQCSQNEYFDSLLHACIPCQLRCSSNTPPLTCQRYCNASVTNSVKGTNA)”, in assay [1] (exogenous sBCMA added to co-culture with K562/BCMA+), the “T-ChARM T cell effector function (IFN-γ release)” value was “dose-dependent inhibition”. Also, the “IFN-γ production by T-ChARM T cells” value in assay [1] (recombinant BCMA not fused to Fc) was “inhibited IFN-γ production in a dose-dependent fashion”. The “lysis of K562 BCMA+ cells by T-ChARM T cells” value in assay [1] (recombinant BCMA not fused to Fc, 4 h CRA, E:T 10:1) is recorded as “did not inhibit lysis”. Moreover, the “BCMA-Fc-APC staining of T-ChARM T cells” value in the assay on C113ST T-ChARM T cells is given as “staining decreased”.
